Values of other authors as cited in patent US20260083720A1 (Vyluma Inc., priority 2022, published 2026).

Columns and labels:
[1] = tested on: myopia progression; details: Chan, 0.01% concentration, period of 6 months
[2] = tested on: myopia progression; details: Hieda et al., atropine group
[3] = tested on: myopia progression; details: Yam et al., atropine at 0.01%; dose-dependent between 0.05% and 0.01%
[4] = tested on: myopia progression; details: Wei et al., atropine-placebo group

CN1[C@@H]2CC[C@H]1C[C@@H](OC(=O)C(CO)c1ccccc1)C2 (some centres unmarked) [atropine]
changes in mean SER and AL [1]: can be reduced
mean AL changes at 24 mo ([2]; placebo 0.77): 0.63 mm
Mean SER changes at 24 mo ([2]; placebo −1.48): −1.26 D
effect of atropine on myopia progression [3]: only relatively small effects
mean myopia progression after 24 months [4]: −1.26 D
